Among the data in patent US9029404B2, “Apoptosis-inducing agents for the treatment of cancer and immune and autoimmune diseases” (AbbVie Inc., priority 2008, dated 2015) are Ki values, retold here.

Chain of GST-Bcl-2 (P10415 whole entry): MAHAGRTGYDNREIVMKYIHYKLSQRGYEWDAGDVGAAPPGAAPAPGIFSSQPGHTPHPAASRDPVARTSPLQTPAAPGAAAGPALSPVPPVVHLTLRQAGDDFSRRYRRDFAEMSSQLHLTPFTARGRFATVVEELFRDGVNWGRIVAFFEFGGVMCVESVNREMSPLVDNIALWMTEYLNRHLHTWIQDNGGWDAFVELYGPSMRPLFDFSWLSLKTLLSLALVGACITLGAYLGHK

The target in the experiment is GST-Bcl-2 (Homo sapiens, UniProt P10415). As to the kind of experiment: Time Resolved-Fluorescence Resonance Energy Transfer (TR-FRET) Bcl-2 binding assay. The following applies: competition with F-Bak peptide probe (100 nM); GST-Bcl-2 1 nM; Tb-anti-GST 1 nM; 3 hours at room temperature; Wang's equation. As for the experimental part:
Determination of the utility of compounds having Formula (I) as binders to and inhibitors of anti-apoptotic Bcl-2 proteins was performed using the Time Resolved-Fluorescence Resonance Energy Transfer (TR-FRET) Assay. Tb-anti-GST antibody was purchased from Invitrogen (Catalog No. PV4216).
Representative compounds were serially diluted in dimethyl sulfoxide (DMSO) starting at 50 μM (2× starting concentration; 10% DMSO) and 10 μL were transferred into a 384-well plate. The samples are then mixed on a shaker for 1 minute and incubated for an additional 3 hours at room temperature. For each assay, the probe/antibody and protein/probe/antibody were included on each assay plate as negative and positive controls, respectively. Fluorescence was measured on the Envision (Perkin Elmer) using a 340/35 nm excitation filter and 520/525 (F-Bak peptide) and 495/510 nm (Tb-labeled anti-Histidine antibody) emission filters.
The samples were then mixed on a shaker for 1 minute and incubated for an additional 3 hours at room temperature. For each assay, the probe/antibody and protein/probe/antibody were included on each assay plate as negative and positive controls, respectively. Fluorescence was measured on the Envision (Perkin Elmer) using a 340/35 nm excitation filter and 520/525 (F-Bak peptide) and 495/510 nm (Tb-labeled anti-Histidine antibody) emission filters.
The inhibition constant (Ki) is the dissociation constant of an enzyme-inhibitor complex or a protein/small molecule complex, wherein the small molecule is inhibiting binding of one protein to another protein. So a large Ki value indicates a low binding affinity and a small Ki value indicates a high binding affinity.
For orientation: Time-resolved FRET reads energy transfer from a long-lived donor to a nearby acceptor.
As to `CC1(C)CCC(CN2CCN(c3ccc(C(=O)NS(=O)(=O)c4ccc(N[C@H]5CC[C@@H](N6CCOCC6)CC5)c([N+](=O)[O-])c4)c(Oc4cnc(N)c(Cl)c4)c3)CC2)=C(c2ccc(Cl)cc2)C1` [Example 452, 2-[(6-amino-5-chloropyridin-3-yl)oxy]-4-(4-{[2-(4-chlorophenyl)-4,4-dimethylcyclohex-1-en-1-yl]methyl}piperazin-1-yl)-N-[(4-{[cis-4-(morpholin-4-yl)cyclohexyl]amino}-3-nitrophenyl)sulfonyl]benzamide], the affinity, expressed as Ki, was 0.112 nM. Under `CC1(C)CCC(CN2CCN(c3ccc(C(=O)NS(=O)(=O)c4cnc(OCC5CCC(C)(O)CC5)c(Cl)c4)c(Oc4cccc5[nH]nc(Cl)c45)c3)CC2)=C(c2ccc(Cl)cc2)C1` (stereo not drawn) [Example 446, N-({5-chloro-6-[(trans-4-hydroxy-4-methylcyclohexyl)methoxy]pyridin-3-yl}sulfonyl)-2-[(3-chloro-1H-indazol-4-yl)oxy]-4-(4-{[2-(4-chlorophenyl)-4,4-dimethylcyclohex-1-en-1-yl]methyl}piperazin-1-yl)benzamide] stands 0.015 nM; under `CC1(C)CCC(CN2CCN(c3ccc(C(=O)NS(=O)(=O)c4cnc(OC[C@H]5CC[C@H](O)CC5)c(Cl)c4)c(Oc4cc(F)cc5[nH]ncc45)c3)CC2)=C(c2ccc(Cl)cc2)C1` [Example 414, N-({5-chloro-6-[(trans-4-hydroxycyclohexyl)methoxy]pyridin-3-yl}sulfonyl)-4-(4-{[2-(4-chlorophenyl)-4,4-dimethylcyclohex-1-en-1-yl]methyl}piperazin-1-yl)-2-[(6-fluoro-1H-indazol-4-yl)oxy]benzamide], 0.014 nM.

As to “2-[(6-amino-5-chloropyridin-3-yl)oxy]-4-(4-{[2-(4-chlorophenyl)-4,4-dimethylcyclohex-1-en-1-yl]methyl}piperazin-1-yl)-N-{[4-({[4-({[4-(methoxymethyl)cyclohexyl]methyl}amino)-3-nitrophenyl]sulfonyl}amino)-3-nitrophenyl]sulfonyl}benzamide [Example 454]”, affinity was put at a Ki of 0.024 nM. For the compound `CC1(C)CCC(CN2CCN(c3ccc(C(=O)NS(=O)(=O)c4ccc(OC[C@H]5CC[C@@](C)(O)CC5)c([N+](=O)[O-])c4)c(Oc4cnc(N)c(Cl)c4)c3)CC2)=C(c2ccc(Cl)cc2)C1` [Example 436, 2-[(6-amino-5-chloropyridin-3-yl)oxy]-4-(4-{[2-(4-chlorophenyl)-4,4-dimethylcyclohex-1-en-1-yl]methyl}piperazin-1-yl)-N-({4-[(cis-4-hydroxy-4-methylcyclohexyl)methoxy]-3-nitrophenyl}sulfonyl)benzamide], the Ki (usually a dissociation constant, usually derived from enzyme kinetics or from competition with a known ligand) was less than 0.01 nM. As for `CC1(C)CCC(CN2CCN(c3ccc(C(=O)NS(=O)(=O)c4ccc(OCC5CCC6(CC5)COC6)c([N+](=O)[O-])c4)c(Oc4cnc(N)c(Cl)c4)c3)CC2)=C(c2ccc(Cl)cc2)C1` [Example 440, 2-[(6-amino-5-chloropyridin-3-yl)oxy]-4-(4-{[2-(4-chlorophenyl)-4,4-dimethylcyclohex-1-en-1-yl]methyl}piperazin-1-yl)-N-{[3-nitro-4-(2-oxaspiro[3.5]non-7-ylmethoxy)phenyl]sulfonyl}benzamide], the Ki amounted to 0.022 nM. Under `CC1(C)CCC(CN2CCN(c3ccc(C(=O)NS(=O)(=O)c4ccc(NCC5CCOCC5)c([N+](=O)[O-])c4)c(Oc4cccc5[nH]nc(N)c45)c3)CC2)=C(c2ccc(Cl)cc2)C1` [Example 431, 2-[(3-amino-1H-indazol-4-yl)oxy]-4-(4-{[2-(4-chlorophenyl)-4,4-dimethylcyclohex-1-en-1-yl]methyl}piperazin-1-yl)-N-({3-nitro-4-[(tetrahydro-2H-pyran-4-ylmethyl)amino]phenyl}sulfonyl)benzamide] stands less than 0.01 nM; under `CC1(C)CCC(CN2CCN(c3ccc(C(=O)NS(=O)(=O)c4cnc(OCC5(F)CCC(C)(O)CC5)c(Cl)c4)c(Oc4cnc(N)c(Cl)c4)c3)CC2)=C(c2ccc(Cl)cc2)C1` (stereo not drawn) [Example 443, 2-[(6-amino-5-chloropyridin-3-yl)oxy]-N-({5-chloro-6-[(trans-1-fluoro-4-hydroxy-4-methylcyclohexyl)methoxy]pyridin-3-yl}sulfonyl)-4-(4-{[2-(4-chlorophenyl)-4,4-dimethylcyclohex-1-en-1-yl]methyl}piperazin-1-yl)benzamide], 0.029 nM; under `Cn1c(=O)[nH]c2cccc(Oc3cc(N4CCN(CC5=C(c6ccc(Cl)cc6)CC(C)(C)CC5)CC4)ccc3C(=O)NS(=O)(=O)c3cnc(OCC4CCOCC4)c(Cl)c3)c21` [Example 425, 4-(4-{[2-(4-chlorophenyl)-4,4-dimethylcyclohex-1-en-1-yl]methyl}piperazin-1-yl)-N-{[5-chloro-6-(tetrahydro-2H-pyran-4-ylmethoxy)pyridin-3-yl]sulfonyl}-2-[(3-methyl-2-oxo-2,3-dihydro-1H-benzimidazol-4-yl)oxy]benzamide], 0.013 nM.

In turn, `CC1(C)CCC(CN2CCN(c3ccc(C(=O)NS(=O)(=O)c4ccc(OCC5(F)CCOCC5)c([N+](=O)[O-])c4)c(Oc4cccc5[nH]nc(N)c45)c3)CC2)=C(c2ccc(Cl)cc2)C1` [Example 429, 2-[(3-amino-1H-indazol-4-yl)oxy]-4-(4-{[2-(4-chlorophenyl)-4,4-dimethylcyclohex-1-en-1-yl]methyl}piperazin-1-yl)-N-({4-[(4-fluorotetrahydro-2H-pyran-4-yl)methoxy]-3-nitrophenyl}sulfonyl)benzamide] came in with a Ki of less than 0.01 nM. Compound `Cn1c(=O)[nH]c2cccc(Oc3cc(N4CCN(CC5=C(c6ccc(Cl)cc6)CC(C)(C)CC5)CC4)ccc3C(=O)NS(=O)(=O)c3ccc(OCC4(F)CCOCC4)c([N+](=O)[O-])c3)c21` [Example 426, 4-(4-{[2-(4-chlorophenyl)-4,4-dimethylcyclohex-1-en-1-yl]methyl}piperazin-1-yl)-N-({4-[(4-fluorotetrahydro-2H-pyran-4-yl)methoxy]-3-nitrophenyl}sulfonyl)-2-[(3-methyl-2-oxo-2,3-dihydro-1H-benzimidazol-4-yl)oxy]benzamide] registered a Ki of less than 0.01 nM. For `CC1(C)CCC(CN2CCN(c3ccc(C(=O)NS(=O)(=O)c4ccc(NC[C@H]5CC[C@H](N6CCOCC6)CC5)c([N+](=O)[O-])c4)c(Oc4cnc(N)c(Cl)c4)c3)CC2)=C(c2ccc(Cl)cc2)C1` [Example 451, 2-[(6-amino-5-chloropyridin-3-yl)oxy]-4-(4-{[2-(4-chlorophenyl)-4,4-dimethylcyclohex-1-en-1-yl]methyl}piperazin-1-yl)-N-{[4-({[trans-4-(morpholin-4-yl)cyclohexyl]methyl}amino)-3-nitrophenyl]sulfonyl}benzamide], the Ki is less than 0.01 nM. The compound `CC1(C)CCC(CN2CCN(c3ccc(C(=O)NS(=O)(=O)c4ccc(NCC5CN(C6COC6)CCO5)c([N+](=O)[O-])c4)c(Oc4cnc(N)c(Cl)c4)c3)CC2)=C(c2ccc(Cl)cc2)C1` (stereo not shown) [Example 421, 2-[(6-amino-5-chloropyridin-3-yl)oxy]-4-(4-{[2-(4-chlorophenyl)-4,4-dimethylcyclohex-1-en-1-yl]methyl}piperazin-1-yl)-N-{[3-nitro-4-({[4-(oxetan-3-yl)morpholin-2-yl]methyl}amino)phenyl]sulfonyl}benzamide] yielded a Ki of less than 0.01 nM. Take `CC1(C)CCC(CN2CCN(c3ccc(C(=O)NS(=O)(=O)c4ccc(NC[C@H]5CN(C6COC6)CCO5)c([N+](=O)[O-])c4)c(Oc4cnc(N)c(Cl)c4)c3)CC2)=C(c2ccc(Cl)cc2)C1` [Example 448, 2-[(6-amino-5-chloropyridin-3-yl)oxy]-4-(4-{[2-(4-chlorophenyl)-4,4-dimethylcyclohex-1-en-1-yl]methyl}piperazin-1-yl)-N-{[3-nitro-4-({[(2S)-4-(oxetan-3-yl)morpholin-2-yl]methyl}amino)phenyl]sulfonyl}benzamide]: the Ki was less than 0.01 nM. As to `CC1(C)CCC(CN2CCN(c3ccc(C(=O)NS(=O)(=O)c4ccc(NCC5CN(C6COC6)CCO5)c([N+](=O)[O-])c4)c(Oc4cc5cc[nH]c5cc4F)c3)CC2)=C(c2ccc(Cl)cc2)C1` (stereo not shown) [Example 422, 4-(4-{[2-(4-chlorophenyl)-4,4-dimethylcyclohex-1-en-1-yl]methyl}piperazin-1-yl)-2-[(6-fluoro-1H-indol-5-yl)oxy]-N-{[3-nitro-4-({[4-(oxetan-3-yl)morpholin-2-yl]methyl}amino)phenyl]sulfonyl}benzamide], the inhibitory constant (Ki) is less than 0.01 nM. Regarding `CC1(C)CCC(CN2CCN(c3ccc(C(=O)NS(=O)(=O)c4cnc(OCC5(F)CCOCC5)c(Cl)c4)c(Oc4cccc5[nH]nc(N)c45)c3)CC2)=C(c2ccc(Cl)cc2)C1` [Example 430, 2-[(3-amino-1H-indazol-4-yl)oxy]-N-({5-chloro-6-[(4-fluorotetrahydro-2H-pyran-4-yl)methoxy]pyridin-3-yl}sulfonyl)-4-(4-{[2-(4-chlorophenyl)-4,4-dimethylcyclohex-1-en-1-yl]methyl}piperazin-1-yl)benzamide], the Ki is less than 0.01 nM.
